Molecular target: L. lactis MG1363 BcaP (CtrA), branched-chain amino acid permease (Lactococcus lactis subsp. cremoris, UniProt A2RHI9)
Assay: Competition experiment: inhibition of L-[14C]isoleucine uptake by unlabeled L-amino acids in whole cells overproducing BcaP
Type: cell-based
Conditions: 10-fold excess of unlabeled L-amino acid; 250 µM unlabeled L-isoleucine (control); lactococcal cells overproducing BcaP; uptake after 1 min at 30°C; means of three measurements
Protocol: Amino acid transport assays. L. lactis MG1363 (pNGbcaP; pNZ9530), L. lactis MG1363 or L. lactis MGbcaP, the latter two harboring plasmids pNG8048 and pNZ9530, were grown at 30°C in 50 ml of ½GM17. At an OD600 of approximately 0.4, 1000^-1 volume of supernatant of the nisin-producing strain L. lactis NZ9700 (Kuipers et al, 1993) was added to the cultures to induce BcaP production. At an OD600 of approximately 1.0, cells were harvested by centrifugation at 6300 g and 4°C. Cell pellets were washed with 25 ml of ice-cold CDM, concentrated to an OD600 of 10.0 in CDM lacking amino acids and stored on ice until use. Cells were energized prior to transport assays by 5 min of incubation at 30°C in the presence of 0.5% glucose. Subsequently, 100 µl of cell suspension were mixed with 100 µL of CDM containing 40 µM of the unlabeled amino acid of interest and a final concentration of 1 µM of the same amino acid in a ^14C- or ^35S-labeled form (Amersham Biosciences). For competition experiments, a 10-fold excess of unlabeled amino acid was added. Mixtures were incubated at 30°C for various time intervals while stirring. The reactions were stopped by the addition of 2 ml of ice-cold 0.1 M LiCl, followed by filtration through 0.45 µm pore-size nitrocellulose filters (Schleicher & Schuell, GmbH, Dassel, Germany). Reaction tubes and filters were washed with another 2 mL of ice-cold 0.1 M LiCl. Subsequently, the filters were transferred to vials containing 2 ml of scintillation fluid (Packard BioScience, Groningen, the Netherlands) and radioactivity was determined using a Packard TriCarb 2000 CA liquid scintillation analyzer (Packard Instruments, Meriden, CT).

L. lactis MG1363 BcaP (CtrA), branched-chain amino acid permease, sequence (A2RHI9 whole entry): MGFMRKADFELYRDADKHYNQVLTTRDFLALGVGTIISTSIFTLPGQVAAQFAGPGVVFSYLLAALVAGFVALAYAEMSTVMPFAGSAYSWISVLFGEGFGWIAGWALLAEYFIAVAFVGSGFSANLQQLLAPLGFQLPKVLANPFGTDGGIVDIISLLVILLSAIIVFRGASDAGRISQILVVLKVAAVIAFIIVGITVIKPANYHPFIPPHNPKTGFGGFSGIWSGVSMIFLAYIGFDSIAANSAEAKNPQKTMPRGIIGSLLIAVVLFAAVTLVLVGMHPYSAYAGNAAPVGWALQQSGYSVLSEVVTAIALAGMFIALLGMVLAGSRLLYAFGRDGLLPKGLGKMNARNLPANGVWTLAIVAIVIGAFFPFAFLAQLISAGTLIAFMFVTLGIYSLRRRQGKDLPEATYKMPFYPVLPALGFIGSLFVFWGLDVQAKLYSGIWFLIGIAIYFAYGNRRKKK

CC[C@H](C)[C@H](N)C(=O)O [isoleucine]
inhibition of isoleucine transport by BcaP (reduction of L-[14C]isoleucine uptake): about 80%

CC(C)C[C@H](N)C(=O)O [leucine]
inhibition of isoleucine transport by BcaP (reduction of L-[14C]isoleucine uptake): about 80%

CSCC[C@H](N)C(=O)O [methionine]
inhibition of isoleucine transport by BcaP (reduction of L-[14C]isoleucine uptake): 23%

CC(C)[C@H](N)C(=O)O [valine]
inhibition of isoleucine transport by BcaP (reduction of L-[14C]isoleucine uptake): 64%

Reference: patent publication EP1801117A1, “Means and methods for regulating amino acid pools and/or transport” (Friesland Brands B.V., priority 2005, dated 2007)
